Measured values taken from patent US12570642B2, “GLP-IR modulating compounds” (Gilead Sciences, Inc., priority 2021, dated 2026).

Biological target: GLP-1R (Homo sapiens, UniProt P43220)
Assay: GLP-1R Activation - cAMP Assay
Assay type: cell-based
Details: […]; each compound run on one of the two cAMP assays (Assay 1 or Assay 2, not specified)
How it was run: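 CHO cells stably expressing GLP-1R, plated at 1,000 cells/well overnight, then equilibrated 1 h in HBSS with 20 mM Hepes and 0.1% BSA. Agonist added as 10-point dose response for 30 min at 37 °C. cAMP measured by HTRF (Cisbio Gs Dynamic kit); EC50 from sigmoidal fit.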

GLP-1R, sequence (P43220 24-463): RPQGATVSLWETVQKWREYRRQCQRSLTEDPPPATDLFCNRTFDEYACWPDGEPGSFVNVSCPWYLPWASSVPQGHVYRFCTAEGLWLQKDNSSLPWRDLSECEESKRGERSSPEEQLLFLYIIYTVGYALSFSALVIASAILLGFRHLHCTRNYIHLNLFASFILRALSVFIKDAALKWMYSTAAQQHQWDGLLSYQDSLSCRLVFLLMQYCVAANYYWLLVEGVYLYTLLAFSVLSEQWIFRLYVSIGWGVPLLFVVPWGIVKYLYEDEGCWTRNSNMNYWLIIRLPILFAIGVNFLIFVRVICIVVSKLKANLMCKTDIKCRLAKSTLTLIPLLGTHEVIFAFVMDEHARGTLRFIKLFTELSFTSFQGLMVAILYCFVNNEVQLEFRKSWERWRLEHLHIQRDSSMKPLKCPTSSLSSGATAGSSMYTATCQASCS

Q: For `COC(=O)N1C[C@H](OC)[C@H](n2c(Cc3cc(F)c(-c4cccc(OCc5ccc(C#N)cc5F)n4)cc3F)nc3ccc(C(=O)O)cc32)C1` [Example 85], which EC50 is on record?
A: 1440 nM

Q: How did the EC50 turn out when `COC(=O)N1C[C@@H](n2c(Cc3cc(F)c(-c4cccc(OCc5ccc(C#N)cc5F)n4)cc3F)nc3ccc(C(=O)O)cc32)[C@H](OC)C1` [Example 86, 2-(4-(6-((4-cyano-2-fluorobenzyl)oxy)pyridin-2-yl)-2,5-difluorobenzyl)-1-((3R,4R)-4-methoxy-1-(methoxycarbonyl)pyrrolidin-3-yl)-1H-benzo[d]imidazole-6-carboxylic Acid] was run?
A: 140 nM

Q: How did the EC50 turn out when `COC(=O)N1C[C@@H](OC)[C@@H](n2c(Cc3cc(F)c(-c4cccc(OCc5ccc(C#N)cc5F)n4)cc3F)nc3ccc(C(=O)O)cc32)C1` [Example 87, 2-(4-(6-((4-cyano-2-fluorobenzyl)oxy)pyridin-2-yl)-2,5-difluorobenzyl)-1-((3S,4R)-4-methoxy-1-(methoxycarbonyl)pyrrolidin-3-yl)-1H-benzo[d]imidazole-6-carboxylic Acid] was run?
A: 22.5 nM

Q: Which EC50 does the source give for `CO[C@@H]1CN(S(C)(=O)=O)C[C@H]1n1c(Cc2cc(F)c(-c3cccc(OCc4ccc(C#N)cc4F)n3)cc2F)nc2ccc(C(=O)O)cc21` [Example 88] here?
A: 136 nM

Q: How did the EC50 turn out when `CO[C@@H]1CN(S(C)(=O)=O)C[C@@H]1n1c(Cc2cc(F)c(-c3cccc(OCc4ccc(C#N)cc4F)n3)cc2F)nc2ccc(C(=O)O)cc21` [Example 89, 2-(4-(6-((4-cyano-2-fluorobenzyl)oxy)pyridin-2-yl)-2,5-difluorobenzyl)-1-((3S,4R)-4-methoxy-1-(methylsulfonyl)pyrrolidin-3-yl)-1H-benzo[d]imidazole-6-carboxylic Acid] was run?
A: 15.3 nM

Same assay, conditions: cAMP increase in CHO cells stably expressing GLP-1R; each compound run on one of the two cAMP assays (Assay 1 or Assay 2, not specified)

Q: Which EC50 does the source give for `CO[C@H]1CCOC[C@H]1n1c(Cc2cc(F)c(-c3cccc(OCc4ccc(C#N)cc4F)n3)cc2F)nc2ccc(C(=O)O)cc21` [Example 70, 2-(4-(6-((4-cyano-2-fluorobenzyl)oxy)pyridin-2-yl)-2,5-difluorobenzyl)-1-((3R,4S)-4-methoxytetrahydro-2H-pyran-3-yl)-1H-benzo[d]imidazole-6-carboxylic Acid] here?
A: 0.26 nM

Q: How did the EC50 turn out when `N#Cc1ccc(COc2cccc(-c3cc(F)c(Cc4nc5ccc(C(=O)O)cc5n4[C@H]4C[C@H]5CO[C@@H]4C5)cc3F)n2)c(F)c1` [Example 71, 1-((1R,4R,6S)-2-oxabicyclo[2.2.1]heptan-6-yl)-2-(4-(6-((4-cyano-2-fluorobenzyl)oxy)pyridin-2-yl)-2,5-difluorobenzyl)-1H-benzo[d]imidazole-6-carboxylic Acid] was run?
A: 1.19 nM

Q: How did the EC50 turn out when `CC1(C)OCCC1n1c(Cc2cc(F)c(-c3cccc(OCc4ccc(C#N)cc4F)n3)cc2F)nc2ccc(C(=O)O)cc21` (centres unmarked) [Example 74, 2-(4-(6-((4-cyano-2-fluorobenzyl)oxy)pyridin-2-yl)-2,5-difluorobenzyl)-1-(2,2-dimethyltetrahydrofuran-3-yl)-1H-benzo[d]imidazole-6-carboxylic Acid] was run?
A: 4.38 nM

Q: `CC1(C)COCC1n1c(Cc2cc(F)c(-c3cccc(OCc4ccc(C#N)cc4F)n3)cc2F)nc2ccc(C(=O)O)cc21` (centres unmarked) [Example 78, 2-(4-(6-((4-cyano-2-fluorobenzyl)oxy)pyridin-2-yl)-2,5-difluorobenzyl)-1-(4,4-dimethyltetrahydrofuran-3-yl)-1H-benzo[d]imidazole-6-carboxylic Acid] was tested. Which EC50 did it give?
A: 0.36 nM

Q: `N#Cc1ccc(COc2cccc(-c3cc(F)c(Cc4nc5ccc(C(=O)O)cc5n4[C@@H]4CO[C@H]5COC[C@H]54)cc3F)n2)c(F)c1` [Example 79, 2-(4-(6-((4-cyano-2-fluorobenzyl)oxy)pyridin-2-yl)-2,5-difluorobenzyl)-1-((3S,3aR,6aR)-hexahydrofuro[3,4-b]furan-3-yl)-1H-benzo[d]imidazole-6-carboxylic Acid] was tested. Which EC50 did it give?
A: 5.62 nM

Q: `N#Cc1ccc(COc2cccc(-c3cc(F)c(Cc4nc5ccc(C(=O)O)cc5n4[C@@H]4CO[C@@H]5CNC[C@H]45)cc3F)n2)c(F)c1` [Example 80, 2-(4-(6-((4-cyano-2-fluorobenzyl)oxy)pyridin-2-yl)-2,5-difluorobenzyl)-1-((3S,3aR,6aS)-hexahydro-2H-furo[2,3-c]pyrrol-3-yl)-1H-benzo[d]imidazole-6-carboxylic Acid] was tested. Which EC50 did it give?
A: 4.91 nM

Q: How did the EC50 turn out when `N#Cc1ccc(COc2cccc(-c3cc(F)c(Cc4nc5ccc(C(=O)O)cc5n4C4CCS(=O)(=O)C4)cc3F)n2)c(F)c1` (centres unmarked) [Example 81, 2-(4-(6-((4-cyano-2-fluorobenzyl)oxy)pyridin-2-yl)-2,5-difluorobenzyl)-1-(1,1-dioxidotetrahydrothiophen-3-yl)-1H-benzo[d]imidazole-6-carboxylic Acid] was run?
A: 40.9 nM

Q: Which EC50 does the source give for `N#Cc1ccc(COc2cccc(-c3cc(F)c(Cc4nc5ccc(C(=O)O)cc5n4C4CCOCC45CC5)cc3F)n2)c(F)c1` (centres unmarked) [Example 82, 2-(4-(6-((4-cyano-2-fluorobenzyl)oxy)pyridin-2-yl)-2,5-difluorobenzyl)-1-(5-oxaspiro[2.5]octan-8-yl)-1H-benzo[d]imidazole-6-carboxylic Acid] here?
A: 1.6 nM

Q: Which EC50 does the source give for `CC1(C)COCCC1n1c(Cc2cc(F)c(-c3cccc(OCc4ccc(C#N)cc4F)n3)cc2F)nc2ccc(C(=O)O)cc21` (centres unmarked) [Example 83, 2-(4-(6-((4-cyano-2-fluorobenzyl)oxy)pyridin-2-yl)-2,5-difluorobenzyl)-1-(3,3-dimethyltetrahydro-2H-pyran-4-yl)-1H-benzo[d]imidazole-6-carboxylic Acid] here?
A: 0.62 nM

Q: For `COCCn1c(Cc2cc(F)c(-c3cccc(OCc4ccc(C#N)cc4F)n3)cc2F)nc2c(-c3ccccn3)cc(C(=O)O)cc21` [Example 84], which EC50 is on record?
A: 1.34 nM

Q: For `Cn1cc(-c2cc(F)c(COc3cccc(-c4cc(F)c(Cc5nc6ccc(C(=O)O)cc6n5C5COCC5(C)C)cc4F)n3)cn2)cn1` (centres unmarked) [Example 90], which EC50 is on record?
A: 0.7 nM

Q: With `COc1cc(-c2cnn(C)c2)ncc1COc1cccc(-c2cc(F)c(Cc3nc4ccc(C(=O)O)cc4n3C[C@@H](C)OC)cc2F)n1` [Example 91, (R)-2-(2,5-difluoro-4-(6-((4-methoxy-6-(1-methyl-1H-pyrazol-4-yl)pyridin-3-yl)methoxy)pyridin-2-yl)benzyl)-1-(2-methoxypropyl)-1H-benzo[d]imidazole-6-carboxylic Acid] as the molecule, how does the EC50 read?
A: 2.06 nM

Q: Which EC50 does the source give for `CC1(C)COCC1n1c(Cc2cc(F)c(-c3cccc(OCc4ccc(Cl)nc4)n3)cc2F)nc2ccc(C(=O)O)cc21` (centres unmarked) [Example 92] here?
A: 0.13 nM

Q: `CC1(C)COCC1n1c(Cc2cc(F)c(-c3cccc(OCc4cnc(Cl)cn4)n3)cc2F)nc2ccc(C(=O)O)cc21` (centres unmarked) [Example 93, 2-(4-(6-((5-chloropyrazin-2-yl)methoxy)pyridin-2-yl)-2,5-difluorobenzyl)-1-(4,4-dimethyltetrahydrofuran-3-yl)-1H-benzo[d]imidazole-6-carboxylic Acid] was tested. Which EC50 did it give?
A: 0.35 nM

Q: How did the EC50 turn out when `COCCn1c(Cc2cc(F)c(-c3cccc(OCc4cnc(C(F)F)cn4)n3)cc2F)nc2ccc(C(=O)O)cc21` [Example 94] was run?
A: 23.9 nM

Q: Which EC50 does the source give for `COCCn1c(Cc2cc(F)c(-c3cccc(OCc4ccc(-n5ccnc5)nc4)n3)cc2F)nc2ccc(C(=O)O)cc21` [Example 95, 2-(4-(6-((6-(1H-imidazol-1-yl)pyridin-3-yl)methoxy)pyridin-2-yl)-2,5-difluorobenzyl)-1-(2-methoxyethyl)-1H-benzo[d]imidazole-6-carboxylic Acid] here?
A: 0.97 nM

Q: Which EC50 does the source give for `COCCn1c(Cc2cc(F)c(-c3cccc(OCc4ccc(C(C)(F)F)cc4)n3)cc2F)nc2ccc(C(=O)O)cc21` [Example 96, 2-(4-(6-((4-(1,1-difluoroethyl)benzyl)oxy)pyridin-2-yl)-2,5-difluorobenzyl)-1-(2-methoxyethyl)-1H-benzo[d]imidazole-6-carboxylic Acid] here?
A: 0.98 nM

Q: How did the EC50 turn out when `COCCn1c(Cc2ccc(-c3cccc(OCc4ccc(C#N)cc4F)n3)c3c2COC3)nc2ccc(C(=O)O)cc21` [Example 97] was run?
A: 21.2 nM

Q: With `COCCOCCOCCn1cc(-c2ccc(COc3cccc(-c4cc(F)c(Cc5nc6ccc(C(=O)O)cc6n5CCOC)cc4F)n3)c(F)c2)cn1` [Example 98] as the molecule, how does the EC50 read?
A: 1.43 nM

Q: With `COCCn1c(Cc2cc(F)c(-c3cccc(OCc4ccc(-c5cn(C)nn5)cc4F)n3)cc2F)nc2ccc(C(=O)O)cc21` [Example 99, 2-(2,5-difluoro-4-(6-((2-fluoro-4-(1-methyl-1H-1,2,3-triazol-4-yl)benzyl)oxy)pyridin-2-yl)benzyl)-1-(2-methoxyethyl)-1H-benzo[d]imidazole-6-carboxylic Acid] as the molecule, how does the EC50 read?
A: 0.6 nM

Q: `COCCn1c(Cc2cc(F)c(-c3cccc(OCc4ccc(-c5cnn(C(F)F)c5)cc4F)n3)cc2F)nc2ccc(C(=O)O)cc21` [Example 100, 2-(4-(6-((4-(1-(difluoromethyl)-1H-pyrazol-4-yl)-2-fluorobenzyl)oxy)pyridin-2-yl)-2,5-difluorobenzyl)-1-(2-methoxyethyl)-1H-benzo[d]imidazole-6-carboxylic Acid] was tested. Which EC50 did it give?
A: 0.45 nM

Q: `COCCn1c(Cc2cc(F)c(-c3cccc(OCc4ccc(-c5ccnn5C)cc4F)n3)cc2F)nc2ccc(C(=O)O)cc21` [Example 101, 2-(2,5-difluoro-4-(6-((2-fluoro-4-(1-methyl-1H-pyrazol-5-yl)benzyl)oxy)pyridin-2-yl)benzyl)-1-(2-methoxyethyl)-1H-benzo[d]imidazole-6-carboxylic Acid] was tested. Which EC50 did it give?
A: 1.46 nM

Q: How did the EC50 turn out when `COCCn1c(Cc2cc(F)c(-c3cccc(OCc4ccc(-c5cc(C(F)(F)F)nn5C)cc4F)n3)cc2F)nc2ccc(C(=O)O)cc21` [Example 102, 2-(2,5-difluoro-4-(6-((2-fluoro-4-(1-methyl-3-(trifluoromethyl)-1H-pyrazol-5-yl)benzyl)oxy)pyridin-2-yl)benzyl)-1-(2-methoxyethyl)-1H-benzo[d]imidazole-6-carboxylic Acid] was run?
A: 22.8 nM

Q: Which EC50 does the source give for `COCCn1c(Cc2cc(F)c(-c3cccc(OCc4ccc(-c5cccnc5)cc4F)n3)cc2F)nc2ccc(C(=O)O)cc21` [Example 103, 2-(2,5-difluoro-4-(6-((2-fluoro-4-(pyridin-3-yl)benzyl)oxy)pyridin-2-yl)benzyl)-1-(2-methoxyethyl)-1H-benzo[d]imidazole-6-carboxylic Acid] here?
A: 1.23 nM
